PubChem BioAssay (NCI)
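Method: 48-hour compound exposure of cells in 96-well plates, five concentrations, linear interpolation of endpoints. GI50 is the concentration that inhibits growth by half. TGI is the concentration that stops growth completely.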

What was measured:
Experiment in all cases: growth of human tumour cells (NCI), 48 h
OVCAR-8 ovarian = tested on: OVCAR-8 ovarian
HOP-62 NSCLC = tested on: HOP-62 NSCLC
OVCAR-4 ovarian = tested on: OVCAR-4 ovarian
RPMI-8226 leukemia = tested on: RPMI-8226 leukemia
MOLT-4 leukemia = tested on: MOLT-4 leukemia
HOP-92 NSCLC = tested on: HOP-92 NSCLC
KM12 colon = tested on: KM12 colon
NCI-H226 lung = tested on: NCI-H226 lung
OVCAR-3 ovarian = tested on: OVCAR-3 ovarian
SN12C renal = tested on: SN12C renal
K-562 leukemia = tested on: K-562 leukemia
SNB-75 CNS = tested on: SNB-75 CNS
MDA-MB-435 = tested on: MDA-MB-435
NCI-H23 lung = tested on: NCI-H23 lung
HCT-15 colon = tested on: HCT-15 colon
MCF7 breast = tested on: MCF7 breast
TK-10 renal = tested on: TK-10 renal
M14 melanoma = tested on: M14 melanoma
SNB-19 CNS = tested on: SNB-19 CNS
SK-OV-3 ovarian = tested on: SK-OV-3 ovarian
A549 NSCLC = tested on: A549 NSCLC
SK-MEL-2 melanoma = tested on: SK-MEL-2 melanoma
T-47D breast = tested on: T-47D breast
DU-145 prostate = tested on: DU-145 prostate
A498 renal = tested on: A498 renal
SF-539 CNS = tested on: SF-539 CNS
ACHN renal = tested on: ACHN renal
SR leukemia = tested on: SR leukemia
RXF 393 renal = tested on: RXF 393 renal
EKVX NSCLC = tested on: EKVX NSCLC
IGROV1 ovarian = tested on: IGROV1 ovarian
HT29 colon = tested on: HT29 colon
LOX IMVI melanoma = tested on: LOX IMVI melanoma
UACC-257 melanoma = tested on: UACC-257 melanoma
COLO 205 colon = tested on: COLO 205 colon
OVCAR-5 ovarian = tested on: OVCAR-5 ovarian
SK-MEL-5 melanoma = tested on: SK-MEL-5 melanoma
SF-295 CNS = tested on: SF-295 CNS
NCI-H522 lung = tested on: NCI-H522 lung
HCT-116 colon = tested on: HCT-116 colon
PC-3 prostate = tested on: PC-3 prostate
CCRF-CEM leukemia = tested on: CCRF-CEM leukemia
SF-268 CNS = tested on: SF-268 CNS
HL-60(TB) leukemia = tested on: HL-60(TB) leukemia
HCC-2998 colon = tested on: HCC-2998 colon
BT-549 breast = tested on: BT-549 breast
UACC-62 melanoma = tested on: UACC-62 melanoma
CAKI-1 renal = tested on: CAKI-1 renal
NCI-H460 lung = tested on: NCI-H460 lung
U251 CNS = tested on: U251 CNS
SW-620 colon = tested on: SW-620 colon
UO-31 renal = tested on: UO-31 renal
MALME-3M melanoma = tested on: MALME-3M melanoma
HS 578T breast = tested on: HS 578T breast
786-0 renal = tested on: 786-0 renal
MDA-MB-231 breast = tested on: MDA-MB-231 breast

SMILES: Cc1nc2sc(C(=O)Nc3ccccc3)c(N)c2cc1C(=O)/C=C/c1ccccc1
- GI50 (OVCAR-8 ovarian): 3.03 µM
- TGI (OVCAR-8 ovarian): 11.8 µM
- GI50 (HOP-62 NSCLC): 2.15 µM
- TGI (HOP-62 NSCLC): 5.13 µM
- GI50 (OVCAR-4 ovarian): 3.1 µM
- TGI (OVCAR-4 ovarian): 18.5 µM
- GI50 (RPMI-8226 leukemia): 1.67 µM
- TGI (RPMI-8226 leukemia): 5.2 µM
- GI50 (MOLT-4 leukemia): 2.91 µM
- TGI (MOLT-4 leukemia): 76.1 µM
- GI50 (HOP-92 NSCLC): 2.07 µM
- TGI (HOP-92 NSCLC): 7.07 µM
- GI50 (KM12 colon): 1.73 µM
- TGI (KM12 colon): 3.38 µM
- GI50 (NCI-H226 lung): 2.04 µM
- TGI (NCI-H226 lung): 4.6 µM
- GI50 (OVCAR-3 ovarian): 1.9 µM
- TGI (OVCAR-3 ovarian): 4.14 µM
- GI50 (SN12C renal): 2.02 µM
- TGI (SN12C renal): 4.45 µM
- GI50 (K-562 leukemia): 2.41 µM
- TGI (K-562 leukemia): 17 µM
- GI50 (SNB-75 CNS): 2.18 µM
- TGI (SNB-75 CNS): 6.12 µM
- GI50 (MDA-MB-435): 1.54 µM
- TGI (MDA-MB-435): 3.73 µM
- GI50 (NCI-H23 lung): 2.2 µM
- TGI (NCI-H23 lung): 5.44 µM
- GI50 (HCT-15 colon): 1.57 µM
- TGI (HCT-15 colon): 3.63 µM
- GI50 (MCF7 breast): 1.53 µM
- TGI (MCF7 breast): 5.51 µM
- GI50 (TK-10 renal): 2.3 µM
- TGI (TK-10 renal): 6.39 µM
- GI50 (M14 melanoma): 1.76 µM
- TGI (M14 melanoma): 4.49 µM
- GI50 (SNB-19 CNS): 1.89 µM
- TGI (SNB-19 CNS): 4.17 µM
- GI50 (SK-OV-3 ovarian): 4.03 µM
- TGI (SK-OV-3 ovarian): 23.3 µM
- GI50 (A549 NSCLC): 2.08 µM
- TGI (A549 NSCLC): 4.91 µM
- GI50 (SK-MEL-2 melanoma): 3.37 µM
- TGI (SK-MEL-2 melanoma): 14.6 µM
- GI50 (T-47D breast): 2.48 µM
- TGI (T-47D breast): 8.2 µM
- GI50 (DU-145 prostate): 1.81 µM
- TGI (DU-145 prostate): 3.6 µM
- GI50 (A498 renal): 2.21 µM
- TGI (A498 renal): 6.08 µM
- GI50 (SF-539 CNS): 1.88 µM
- TGI (SF-539 CNS): 3.56 µM
- GI50 (ACHN renal): 1.81 µM
- TGI (ACHN renal): 3.45 µM
- GI50 (SR leukemia): 1.38 µM
- TGI (SR leukemia): 11.7 µM
- GI50 (RXF 393 renal): 1.67 µM
- TGI (RXF 393 renal): 3.25 µM
- GI50 (EKVX NSCLC): 2.26 µM
- TGI (EKVX NSCLC): 6.48 µM
- GI50 (IGROV1 ovarian): 1.99 µM
- TGI (IGROV1 ovarian): 4.73 µM
- GI50 (HT29 colon): 1.77 µM
- TGI (HT29 colon): 3.95 µM
- GI50 (LOX IMVI melanoma): 1.68 µM
- TGI (LOX IMVI melanoma): 3.13 µM
- GI50 (UACC-257 melanoma): 2.11 µM
- TGI (UACC-257 melanoma): 5.29 µM
- GI50 (COLO 205 colon): 2.02 µM
- TGI (COLO 205 colon): 4.49 µM
- GI50 (OVCAR-5 ovarian): 2.31 µM
- TGI (OVCAR-5 ovarian): 7.13 µM
- GI50 (SK-MEL-5 melanoma): 2.27 µM
- TGI (SK-MEL-5 melanoma): 5.98 µM
- GI50 (SF-295 CNS): 2.77 µM
- TGI (SF-295 CNS): 7.56 µM
- GI50 (NCI-H522 lung): 1.77 µM
- TGI (NCI-H522 lung): 4.24 µM
- GI50 (HCT-116 colon): 1.46 µM
- TGI (HCT-116 colon): 2.97 µM
- GI50 (PC-3 prostate): 2.14 µM
- TGI (PC-3 prostate): 5.55 µM
- GI50 (CCRF-CEM leukemia): 2.22 µM
- TGI (CCRF-CEM leukemia): > 100 µM
- GI50 (SF-268 CNS): 2.94 µM
- TGI (SF-268 CNS): 9.93 µM
- GI50 (HL-60(TB) leukemia): 2.03 µM
- TGI (HL-60(TB) leukemia): 4.83 µM
- GI50 (HCC-2998 colon): 1.77 µM
- TGI (HCC-2998 colon): 3.28 µM
- GI50 (BT-549 breast): 1.71 µM
- TGI (BT-549 breast): 3.63 µM
- GI50 (UACC-62 melanoma): 1.64 µM
- TGI (UACC-62 melanoma): 3.45 µM
- GI50 (CAKI-1 renal): 1.87 µM
- TGI (CAKI-1 renal): 3.74 µM
- GI50 (NCI-H460 lung): 1.96 µM
- TGI (NCI-H460 lung): 4.15 µM
- GI50 (U251 CNS): 1.71 µM
- TGI (U251 CNS): 3.16 µM
- GI50 (SW-620 colon): 1.74 µM
- TGI (SW-620 colon): 4.49 µM
- GI50 (UO-31 renal): 1.54 µM
- TGI (UO-31 renal): 2.89 µM
- GI50 (MALME-3M melanoma): 2.35 µM
- TGI (MALME-3M melanoma): 7.71 µM
- GI50 (HS 578T breast): 2.79 µM
- TGI (HS 578T breast): > 100 µM
- GI50 (786-0 renal): 1.51 µM
- TGI (786-0 renal): 3.01 µM
- GI50 (MDA-MB-231 breast): 3.41 µM
- TGI (MDA-MB-231 breast): 11.3 µM
